Source: PubChem BioAssay (NCI)
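All cell lines were grown in 96-well plates and treated with compound for 48 hours. Here, GI50 denotes the concentration required for 50% inhibition of growth. TGI marks complete inhibition of growth.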

What was measured:
Assay in all cases: NCI tumour cell line growth inhibition, 48 h
HCC-2998 colon = tested on: HCC-2998 colon
NCI-H226 lung = tested on: NCI-H226 lung
MOLT-4 leukemia = tested on: MOLT-4 leukemia
MALME-3M melanoma = tested on: MALME-3M melanoma
A498 renal = tested on: A498 renal
MDA-MB-231 breast = tested on: MDA-MB-231 breast
HCT-116 colon = tested on: HCT-116 colon
SK-MEL-5 melanoma = tested on: SK-MEL-5 melanoma
KM12 colon = tested on: KM12 colon
T-47D breast = tested on: T-47D breast
UACC-62 melanoma = tested on: UACC-62 melanoma
CCRF-CEM leukemia = tested on: CCRF-CEM leukemia
SNB-19 CNS = tested on: SNB-19 CNS
RXF 393 renal = tested on: RXF 393 renal
NCI/ADR-RES ovarian = tested on: NCI/ADR-RES ovarian
OVCAR-5 ovarian = tested on: OVCAR-5 ovarian
NCI-H23 lung = tested on: NCI-H23 lung
SNB-75 CNS = tested on: SNB-75 CNS
OVCAR-3 ovarian = tested on: OVCAR-3 ovarian
TK-10 renal = tested on: TK-10 renal
HS 578T breast = tested on: HS 578T breast
PC-3 prostate = tested on: PC-3 prostate
MDA-MB-435 = tested on: MDA-MB-435
K-562 leukemia = tested on: K-562 leukemia
EKVX NSCLC = tested on: EKVX NSCLC
U251 CNS = tested on: U251 CNS
SF-539 CNS = tested on: SF-539 CNS
SK-OV-3 ovarian = tested on: SK-OV-3 ovarian
BT-549 breast = tested on: BT-549 breast
SK-MEL-28 melanoma = tested on: SK-MEL-28 melanoma
NCI-H522 lung = tested on: NCI-H522 lung
IGROV1 ovarian = tested on: IGROV1 ovarian
HCT-15 colon = tested on: HCT-15 colon
A549 NSCLC = tested on: A549 NSCLC
SF-268 CNS = tested on: SF-268 CNS
LOX IMVI melanoma = tested on: LOX IMVI melanoma
SN12C renal = tested on: SN12C renal
UACC-257 melanoma = tested on: UACC-257 melanoma
NCI-H460 lung = tested on: NCI-H460 lung
UO-31 renal = tested on: UO-31 renal
DU-145 prostate = tested on: DU-145 prostate
HOP-62 NSCLC = tested on: HOP-62 NSCLC
SF-295 CNS = tested on: SF-295 CNS
SW-620 colon = tested on: SW-620 colon
OVCAR-8 ovarian = tested on: OVCAR-8 ovarian
COLO 205 colon = tested on: COLO 205 colon
SK-MEL-2 melanoma = tested on: SK-MEL-2 melanoma
HL-60(TB) leukemia = tested on: HL-60(TB) leukemia
ACHN renal = tested on: ACHN renal
OVCAR-4 ovarian = tested on: OVCAR-4 ovarian
M14 melanoma = tested on: M14 melanoma
MCF7 breast = tested on: MCF7 breast
RPMI-8226 leukemia = tested on: RPMI-8226 leukemia
CAKI-1 renal = tested on: CAKI-1 renal
786-0 renal = tested on: 786-0 renal
HOP-92 NSCLC = tested on: HOP-92 NSCLC

Structure (SMILES): O=C(c1ccco1)c1c(C(F)(F)F)n([O-])c2ccc(F)cc2[n+]1=O
- GI50 (HCC-2998 colon): 775 nM
- TGI (HCC-2998 colon): 2020 nM
- GI50 (NCI-H226 lung): 5380 nM
- TGI (NCI-H226 lung): 22100 nM
- GI50 (MOLT-4 leukemia): 219 nM
- TGI (MOLT-4 leukemia): 540 nM
- GI50 (MALME-3M melanoma): 1090 nM
- TGI (MALME-3M melanoma): 3210 nM
- GI50 (A498 renal): 8530 nM
- TGI (A498 renal): 24300 nM
- GI50 (MDA-MB-231 breast): 1610 nM
- TGI (MDA-MB-231 breast): 3440 nM
- GI50 (HCT-116 colon): 824 nM
- TGI (HCT-116 colon): 2410 nM
- GI50 (SK-MEL-5 melanoma): 1840 nM
- TGI (SK-MEL-5 melanoma): 5880 nM
- GI50 (KM12 colon): 213 nM
- TGI (KM12 colon): 568 nM
- GI50 (T-47D breast): 540 nM
- TGI (T-47D breast): 3210 nM
- GI50 (UACC-62 melanoma): 1210 nM
- TGI (UACC-62 melanoma): 2550 nM
- GI50 (CCRF-CEM leukemia): 400 nM
- TGI (CCRF-CEM leukemia): 2970 nM
- GI50 (SNB-19 CNS): 1060 nM
- TGI (SNB-19 CNS): 2410 nM
- GI50 (RXF 393 renal): 759 nM
- TGI (RXF 393 renal): 2140 nM
- GI50 (NCI/ADR-RES ovarian): 2190 nM
- TGI (NCI/ADR-RES ovarian): 5590 nM
- GI50 (OVCAR-5 ovarian): 5970 nM
- TGI (OVCAR-5 ovarian): 17500 nM
- GI50 (NCI-H23 lung): 1020 nM
- TGI (NCI-H23 lung): 2490 nM
- GI50 (SNB-75 CNS): 1590 nM
- TGI (SNB-75 CNS): 7910 nM
- GI50 (OVCAR-3 ovarian): 757 nM
- TGI (OVCAR-3 ovarian): 2240 nM
- GI50 (TK-10 renal): 1420 nM
- TGI (TK-10 renal): 3360 nM
- GI50 (HS 578T breast): 1840 nM
- TGI (HS 578T breast): 7080 nM
- GI50 (PC-3 prostate): 1010 nM
- TGI (PC-3 prostate): 2470 nM
- GI50 (MDA-MB-435): 1300 nM
- TGI (MDA-MB-435): 2750 nM
- GI50 (K-562 leukemia): 65 nM
- TGI (K-562 leukemia): 219 nM
- GI50 (EKVX NSCLC): 2950 nM
- TGI (EKVX NSCLC): 8090 nM
- GI50 (U251 CNS): 1330 nM
- TGI (U251 CNS): 2600 nM
- GI50 (SF-539 CNS): 2550 nM
- TGI (SF-539 CNS): 8320 nM
- GI50 (SK-OV-3 ovarian): 6020 nM
- TGI (SK-OV-3 ovarian): 18600 nM
- GI50 (BT-549 breast): 996 nM
- TGI (BT-549 breast): 2980 nM
- GI50 (SK-MEL-28 melanoma): 1460 nM
- TGI (SK-MEL-28 melanoma): 2790 nM
- GI50 (NCI-H522 lung): 1700 nM
- TGI (NCI-H522 lung): 3440 nM
- GI50 (IGROV1 ovarian): 1230 nM
- TGI (IGROV1 ovarian): 2780 nM
- GI50 (HCT-15 colon): 219 nM
- TGI (HCT-15 colon): 855 nM
- GI50 (A549 NSCLC): 3080 nM
- TGI (A549 NSCLC): 9870 nM
- GI50 (SF-268 CNS): 1240 nM
- TGI (SF-268 CNS): 2850 nM
- GI50 (LOX IMVI melanoma): 785 nM
- TGI (LOX IMVI melanoma): 2240 nM
- GI50 (SN12C renal): 1330 nM
- TGI (SN12C renal): 3380 nM
- GI50 (UACC-257 melanoma): 1470 nM
- TGI (UACC-257 melanoma): 2810 nM
- GI50 (NCI-H460 lung): 926 nM
- TGI (NCI-H460 lung): 11700 nM
- GI50 (UO-31 renal): 1600 nM
- TGI (UO-31 renal): 3000 nM
- GI50 (DU-145 prostate): 2240 nM
- TGI (DU-145 prostate): 7040 nM
- GI50 (HOP-62 NSCLC): 3000 nM
- TGI (HOP-62 NSCLC): 13700 nM
- GI50 (SF-295 CNS): 4690 nM
- TGI (SF-295 CNS): 17900 nM
- GI50 (SW-620 colon): 316 nM
- TGI (SW-620 colon): 1160 nM
- GI50 (OVCAR-8 ovarian): 558 nM
- TGI (OVCAR-8 ovarian): 1170 nM
- GI50 (COLO 205 colon): 524 nM
- TGI (COLO 205 colon): 1360 nM
- GI50 (SK-MEL-2 melanoma): 910 nM
- TGI (SK-MEL-2 melanoma): 2470 nM
- GI50 (HL-60(TB) leukemia): 186 nM
- TGI (HL-60(TB) leukemia): 452 nM
- GI50 (ACHN renal): 1330 nM
- TGI (ACHN renal): 2620 nM
- GI50 (OVCAR-4 ovarian): 1350 nM
- TGI (OVCAR-4 ovarian): 2640 nM
- GI50 (M14 melanoma): 1480 nM
- TGI (M14 melanoma): 2930 nM
- GI50 (MCF7 breast): 258 nM
- TGI (MCF7 breast): 1890 nM
- GI50 (RPMI-8226 leukemia): 180 nM
- TGI (RPMI-8226 leukemia): 573 nM
- GI50 (CAKI-1 renal): 1600 nM
- TGI (CAKI-1 renal): 3260 nM
- GI50 (786-0 renal): 1270 nM
- TGI (786-0 renal): 3940 nM
- GI50 (HOP-92 NSCLC): 802 nM
- TGI (HOP-92 NSCLC): 2550 nM
